In PubChem BioAssay (NCI):
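Tested at 5 concentrations; 48 h exposure; 96-well plates; endpoints linearly interpolated, else capped at highest concentration. Abbreviation: GI50, concentration required for 50% inhibition of growth. TGI denotes the concentration required for complete inhibition of growth.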

Tests used:
Assay in all cases: growth of human tumour cells (NCI), 48 h
SF-539 CNS = test system: SF-539 CNS
HCT-15 colon = test system: HCT-15 colon
SW-620 colon = test system: SW-620 colon
DU-145 prostate = test system: DU-145 prostate
SNB-19 CNS = test system: SNB-19 CNS
BT-549 breast = test system: BT-549 breast
SK-MEL-28 melanoma = test system: SK-MEL-28 melanoma
HCC-2998 colon = test system: HCC-2998 colon
OVCAR-3 ovarian = test system: OVCAR-3 ovarian
NCI-H522 lung = test system: NCI-H522 lung
SF-268 CNS = test system: SF-268 CNS
COLO 205 colon = test system: COLO 205 colon
HT29 colon = test system: HT29 colon
MCF7 breast = test system: MCF7 breast
NCI-H23 lung = test system: NCI-H23 lung
SK-OV-3 ovarian = test system: SK-OV-3 ovarian
OVCAR-5 ovarian = test system: OVCAR-5 ovarian
PC-3 prostate = test system: PC-3 prostate
A549 NSCLC = test system: A549 NSCLC
ACHN renal = test system: ACHN renal
MALME-3M melanoma = test system: MALME-3M melanoma
EKVX NSCLC = test system: EKVX NSCLC
KM12 colon = test system: KM12 colon
SF-295 CNS = test system: SF-295 CNS
HCT-116 colon = test system: HCT-116 colon
UO-31 renal = test system: UO-31 renal
SNB-75 CNS = test system: SNB-75 CNS
OVCAR-8 ovarian = test system: OVCAR-8 ovarian
CAKI-1 renal = test system: CAKI-1 renal
NCI-H460 lung = test system: NCI-H460 lung
LOX IMVI melanoma = test system: LOX IMVI melanoma
NCI-H226 lung = test system: NCI-H226 lung
MDA-MB-435 = test system: MDA-MB-435
HS 578T breast = test system: HS 578T breast
TK-10 renal = test system: TK-10 renal
MOLT-4 leukemia = test system: MOLT-4 leukemia
K-562 leukemia = test system: K-562 leukemia
786-0 renal = test system: 786-0 renal
NCI/ADR-RES ovarian = test system: NCI/ADR-RES ovarian
OVCAR-4 ovarian = test system: OVCAR-4 ovarian
UACC-257 melanoma = test system: UACC-257 melanoma
CCRF-CEM leukemia = test system: CCRF-CEM leukemia
U251 CNS = test system: U251 CNS
SN12C renal = test system: SN12C renal
RPMI-8226 leukemia = test system: RPMI-8226 leukemia
A498 renal = test system: A498 renal
SK-MEL-2 melanoma = test system: SK-MEL-2 melanoma
IGROV1 ovarian = test system: IGROV1 ovarian
MDA-MB-231 breast = test system: MDA-MB-231 breast
HL-60(TB) leukemia = test system: HL-60(TB) leukemia
SK-MEL-5 melanoma = test system: SK-MEL-5 melanoma
T-47D breast = test system: T-47D breast
UACC-62 melanoma = test system: UACC-62 melanoma
M14 melanoma = test system: M14 melanoma
SR leukemia = test system: SR leukemia

## COc1cc2c(cc1C)NC(=O)/C2=C\c1cccc(Oc2ccccc2)c1
SF-539 CNS
  GI50: 19.4 µM
  TGI: 34.5 µM
HCT-15 colon
  GI50: 13.3 µM
  TGI: 26.2 µM
SW-620 colon
  GI50: 16.1 µM
  TGI: 32.9 µM
DU-145 prostate
  GI50: 13.5 µM
  TGI: 27 µM
SNB-19 CNS
  GI50: 14.3 µM
  TGI: 28.1 µM
BT-549 breast
  GI50: 12.8 µM
  TGI: 27.9 µM
SK-MEL-28 melanoma
  GI50: 18.1 µM
  TGI: 34.9 µM
HCC-2998 colon
  GI50: 11.6 µM
  TGI: 24.4 µM
OVCAR-3 ovarian
  GI50: 13.2 µM
  TGI: 26.8 µM
NCI-H522 lung
  GI50: 13.5 µM
  TGI: 34.4 µM
SF-268 CNS
  GI50: 13.9 µM
  TGI: 31.5 µM
COLO 205 colon
  GI50: 16.6 µM
  TGI: 33.5 µM
HT29 colon
  GI50: 12.1 µM
  TGI: 26.1 µM
MCF7 breast
  GI50: 6.73 µM
  TGI: 24 µM
NCI-H23 lung
  GI50: 13.6 µM
  TGI: 28.3 µM
SK-OV-3 ovarian
  GI50: 22.3 µM
  TGI: 40.9 µM
OVCAR-5 ovarian
  GI50: 17 µM
  TGI: 32.4 µM
PC-3 prostate
  GI50: 12 µM
  TGI: 25.2 µM
A549 NSCLC
  GI50: 20.6 µM
  TGI: > 100 µM
ACHN renal
  GI50: 17.3 µM
  TGI: 31 µM
MALME-3M melanoma
  GI50: 26.1 µM
  TGI: 44.6 µM
EKVX NSCLC
  GI50: 15.4 µM
  TGI: 41.7 µM
KM12 colon
  GI50: 14.3 µM
  TGI: 34.6 µM
SF-295 CNS
  GI50: 16.8 µM
  TGI: 31.8 µM
HCT-116 colon
  GI50: 7.88 µM
  TGI: 20.4 µM
UO-31 renal
  GI50: 11.7 µM
  TGI: 27.5 µM
SNB-75 CNS
  GI50: 25 µM
  TGI: 49.6 µM
OVCAR-8 ovarian
  GI50: 25.1 µM
  TGI: > 100 µM
CAKI-1 renal
  GI50: 19.4 µM
  TGI: 41.2 µM
NCI-H460 lung
  GI50: 12.9 µM
  TGI: 27.2 µM
LOX IMVI melanoma
  GI50: 12.9 µM
  TGI: 26.4 µM
NCI-H226 lung
  GI50: 21 µM
  TGI: 38.1 µM
MDA-MB-435
  GI50: 11.8 µM
  TGI: 25.9 µM
HS 578T breast
  GI50: 39.1 µM
  TGI: 89.8 µM
TK-10 renal
  GI50: 23.3 µM
  TGI: 50.6 µM
MOLT-4 leukemia
  GI50: 6.23 µM
  TGI: 21.8 µM
K-562 leukemia
  GI50: 9.83 µM
  TGI: 39.1 µM
786-0 renal
  GI50: 13.2 µM
  TGI: 25.9 µM
NCI/ADR-RES ovarian
  GI50: 12.9 µM
  TGI: 32.4 µM
OVCAR-4 ovarian
  GI50: 14.4 µM
  TGI: 35.6 µM
UACC-257 melanoma
  GI50: 21.7 µM
  TGI: 52.3 µM
CCRF-CEM leukemia
  GI50: 6.85 µM
  TGI: 24.5 µM
U251 CNS
  GI50: 12.4 µM
  TGI: 24.9 µM
SN12C renal
  GI50: 13.2 µM
  TGI: 25.9 µM
RPMI-8226 leukemia
  GI50: 5.02 µM
  TGI: 24 µM
A498 renal
  GI50: 10.5 µM
  TGI: 22.5 µM
SK-MEL-2 melanoma
  GI50: 20.1 µM
  TGI: 47.1 µM
IGROV1 ovarian
  GI50: 14.5 µM
  TGI: 29.4 µM
MDA-MB-231 breast
  GI50: 16.3 µM
  TGI: 37.4 µM
HL-60(TB) leukemia
  GI50: 11.9 µM
  TGI: 26.8 µM
SK-MEL-5 melanoma
  GI50: 11.6 µM
  TGI: 23.8 µM
T-47D breast
  GI50: 11.4 µM
  TGI: 81.4 µM
UACC-62 melanoma
  GI50: 12.5 µM
  TGI: 25.4 µM
M14 melanoma
  GI50: 16.6 µM
  TGI: 31 µM
SR leukemia
  GI50: 5.68 µM
  TGI: 31.4 µM
